# Data: patent US20160130278A1 (TAISHO PHARMACEUTICAL CO., LTD, priority 2013, published 2016)
# Biological target: T1, human type 1 glycine transporter (GlyT1) (Homo sapiens, UniProt P48067)
# T1 construct: T98G cells (glioma cells) expressing human type 1 glycine transporter (GlyT1) were used
# T1 sequence (P48067 1-706): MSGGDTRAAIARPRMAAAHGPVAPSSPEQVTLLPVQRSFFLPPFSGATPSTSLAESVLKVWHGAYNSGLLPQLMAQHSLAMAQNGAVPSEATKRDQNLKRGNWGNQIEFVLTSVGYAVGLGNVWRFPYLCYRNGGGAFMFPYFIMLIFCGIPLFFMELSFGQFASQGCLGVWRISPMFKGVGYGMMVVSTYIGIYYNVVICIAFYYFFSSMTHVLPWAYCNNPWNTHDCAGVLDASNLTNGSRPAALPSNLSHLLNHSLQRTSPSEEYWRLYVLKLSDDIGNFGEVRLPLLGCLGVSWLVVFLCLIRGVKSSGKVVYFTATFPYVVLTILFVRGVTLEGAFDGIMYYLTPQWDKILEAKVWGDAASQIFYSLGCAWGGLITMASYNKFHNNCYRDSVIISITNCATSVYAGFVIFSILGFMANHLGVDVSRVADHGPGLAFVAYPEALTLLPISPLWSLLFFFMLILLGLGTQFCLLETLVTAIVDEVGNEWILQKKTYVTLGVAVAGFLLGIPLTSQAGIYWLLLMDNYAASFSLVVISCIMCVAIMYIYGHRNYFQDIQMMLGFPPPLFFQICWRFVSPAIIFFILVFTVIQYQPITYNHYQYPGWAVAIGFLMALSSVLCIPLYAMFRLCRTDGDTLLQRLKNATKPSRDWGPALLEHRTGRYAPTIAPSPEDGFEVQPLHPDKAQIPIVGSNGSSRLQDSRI
# Experiment: Glycine uptake inhibition experiment ([3H]glycine uptake)
# Assay type: cell-based
# Details: GlyT1
# How it was run: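 T98G glioma cells expressing human GlyT1 were pretreated 10 min with compound in HEPES buffer pH 7.4 (0.2% BSA), then incubated with compound plus 250 nM final [3H]glycine for 15 min at room temperature. Intracellular radioactivity was counted after NaOH lysis; 10 μM ALX5407 defined non-specific uptake. IC50 came from 10^−9–10^−5 M curves.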
row,SMILES,IC50 [nM]
1,"CCn1cc(-c2cccc(C(NC(=O)c3nccc(C(F)(F)F)c3Cl)C3(O)CCC(F)(F)CC3)c2)cn1 (stereo not drawn) [Compound 86, 3-chloro-N-{(4,4-difluroo-1-hydroxycyclohexyl)[3-(1-ethyl-1H-pyrazol-4-yl)phenyl]methyl}-4-(trifluoromethyl)pyridine-2-carboxamide]",73
2,"CCOc1cccc(C(NC(=O)c2nccc(C(F)(F)F)c2Cl)C2(O)CCCC2)c1 (stereo not drawn) [Compound 87, 3-chloro-N-[(3-ethoxyphenyl)(1-hydroxycyclopentyl)methyl]-4-(trifluoromethyl)pyridine-2-carboxamide]",300
3,"O=C(NC(c1cc(F)cc(Cl)c1)C1(O)CCCC1)c1nccc(C(F)(F)F)c1Cl (stereo not drawn) [Compound 88, 3-chloro-N-[(3-chloro-5-fluroophenyl)(1-hydroxycyclopentyl)methyl]-4-(trifluoromethyl)pyridine-2-carboxamide]",180
4,"O=C(NC(c1ccc(F)c(Cl)c1)C1(O)CCCC1)c1nccc(C(F)(F)F)c1Cl (stereo not drawn) [Compound 93, 3-chloro-N-{(3-chloro-4-fluorophenyl)(1-hydroxycyclopentyl)methyl}-4-(trifluoromethyl)pyridine-2-carboxamide]",430
5,"O=C(NC(c1ccc(F)cc1Cl)C1(O)CCCC1)c1nccc(C(F)(F)F)c1Cl (stereo not drawn) [Compound 95, 3-chloro-N-[(2-chloro-4-fluorophenyl)(1-hydroxycyclopentyl)methyl]-4-(trifluoromethyl)pyridine-2-carboxamide]",130
6,"O=C(NC(c1cccc(Br)c1)C1(O)CCC(F)CC1)c1nccc(C(F)(F)F)c1Cl (stereo not drawn) [Compound 96, N-[(3-bromophenyl)(4-fluoro-1-hydroxycyclohexyl)methyl]-3-chloro-4-(trifluoromethyl)pyridine-2-carboxamide]",250
7,"COC(=O)c1cccc(C(NC(=O)c2nccc(C(F)(F)F)c2Cl)C2(O)CCCC2)c1 (stereo not drawn) [Compound 98, methyl 3-[({[3-chloro-4-(trifluoromethyl)pyridin-2-yl]carbonyl}amino)(1-hydroxycyclopentyl)methyl]benzoate]",590
8,"O=C(N[C@H](c1cccc(Br)c1)[C@]1(O)CC[C@H](F)CC1)c1nccc(C(F)(F)F)c1Cl [Compound 101, N-[(R)-(3-bromophenyl)(trans-4-fluoro-1-hydroxycyclohexyl)methyl]-3-hcloro-4-(trifluoromethyl)pyridine-2-carboxamide]",1500
9,"O=C(N[C@@H](c1cccc(Br)c1)[C@]1(O)CC[C@H](F)CC1)c1nccc(C(F)(F)F)c1Cl [Compound 102, N-[(S)-(3-bromophenyl)(trans-4-fluoro-1-hydroxycyclohexyl)methyl]-3-chloro-4-(trifluoromethyl)pyridine-2-carboxamide]",150
10,"O=C(NC(c1ccccc1Cl)C1(O)CCC(F)(F)CC1)c1nccc(C(F)(F)F)c1Cl (stereo not drawn) [Compound 103, 3-chloro-N-[(2-chlorophenyl)(4,4-difluoro-1-hydroxycyclohexyl)methyl]-4-(trifluoromethyl)pyridine-2-carboxamide]",250
11,"O=C(NC(c1cccc(CO)c1)C1(O)CCCC1)c1nccc(C(F)(F)F)c1Cl (stereo not drawn) [Compound 104, 3-chloro-N-{(1-hydroxycyclopentyl)[3-(hydroxymethyl)phenyl]methyl}-4-(trifluoromethyl)pyridine-2-carboxamide]",920
12,"CN(C)C(=O)c1cccc(C(NC(=O)c2nccc(C(F)(F)F)c2Cl)C2(O)CCCC2)c1 (stereo not drawn) [Compound 105, 3-chloro-N-{[3-(dimethylcarbamoyl)phenyl](1-hydroxycyclopentyl)methyl}-4-(trifluoromethyl)pyridine-2-carboxamide]",1600
13,"NC(=O)c1cccc(C(NC(=O)c2nccc(C(F)(F)F)c2Cl)C2(O)CCCC2)c1 (stereo not drawn) [Compound 106, N-[(3-carbamoylphenyl)(1-hydroxycyclopentyl)methyl]-3-chloro-4-(trifluoromethyl)pyridine-2-carboxamide]",900
14,"O=C(NC(c1cccc(Cl)c1Cl)C1(O)CCCC1)c1nccc(C(F)(F)F)c1Cl (stereo not drawn) [Compound 107, 3-chloro-N-[(2,3-dichlorophenyl)(1-hydroxycyclopentyl)methyl]-4-(trifluoromethyl)pyridine-2-carboxamide]",39
15,"O=C(NC(c1cc(Cl)ccc1Cl)C1(O)CCCC1)c1nccc(C(F)(F)F)c1Cl (stereo not drawn) [Compound 108, 3-chloro-N-[(2,5-dichlorophenyl)(1-hydroxycyclopentyl)methyl]-4-(trifluoromethyl)pyridine-2-carboxamide]",68
16,"O=C(N[C@H](c1cccc(Br)c1)[C@]1(O)CC[C@@H](F)CC1)c1nccc(C(F)(F)F)c1Cl [Compound 109, N-[(R)-(3-bromophenyl)(cis-4-fluoro-1-hydroxycyclohexyl)methyl]-3-chloro-4-(trifluoromethyl)pyridine-2-carboxamide]",6100

# Next, values leading:
row,IC50 [nM],SMILES
1,95,"O=C(N[C@@H](c1cccc(Br)c1)[C@]1(O)CC[C@@H](F)CC1)c1nccc(C(F)(F)F)c1Cl [Compound 110, N-[(S)-(3-bromophenyl)(cis-4-fluoro-1-hydroxycyclohexyl)methyl]-3-chloro-4-(trifluoromethyl)pyridine-2-carboxamide]"
2,220,"O=C(NC(c1cc(Cl)cc(Cl)c1)C1(O)CCCC1)c1nccc(C(F)(F)F)c1Cl (stereo not drawn) [Compound 111, 3-chloro-N-[(3,5-dichlorophenyl)(1-hydroxycyclopentyl)methyl]-4-(trifluoromethyl)pyridine-2-carboxamide]"
3,1800,"CN(C)Cc1cccc(C(NC(=O)c2nccc(C(F)(F)F)c2Cl)C2(O)CCCC2)c1 (stereo not drawn) [Compound 112, 3-chloro-N-[{3-[(dimethylamino)methyl]phenyl}(1-hydroxycyclopentyl)methyl]-4-(trifluoromethyl)pyridine-2-carboxamide]"
4,260,"CCn1cc(-c2cccc(C(NC(=O)c3cccc(C(F)(F)F)c3Cl)C3(O)CCC(F)(F)CC3)c2)cn1 (stereo not drawn) [Compound 118, 2-chloro-N-{(4,4-difluoro-1-hydroxycyclohexyl)[3-(1-ethyl-1H-pyraozl-4-yl)phenyl]methyl}-3-(trifluoromethyl)benzamide]"
5,470,"CCn1cc(-c2cccc(C(NC(=O)c3cccc(Cl)c3Cl)C3(O)CCC(F)(F)CC3)c2)cn1 (stereo not drawn) [Compound 119, 2,3-dichloro-N-{(4,4-difluoro-1-hydroxycyclohexyl)[3-(1-ethyl-1H-pyrazol-4-yl)phenyl]methyl}benzamide]"
6,740,"CCn1cc(-c2cccc(C(NC(=O)c3c(C)cccc3C)C3(O)CCC(F)(F)CC3)c2)cn1 (stereo not drawn) [Compound 120, N{(4,4-difluoro-1-hydroxycyclohexyl)[3-(1-ethyl-1H-pyrazol-4-yl)phenyl]methyl}-2,6-dimethylbenzamide]"
7,280,"CCn1cc(-c2cccc(C(NC(=O)c3c(Cl)ccc(C(F)(F)F)c3Cl)C3(O)CCC(F)(F)CC3)c2)cn1 (stereo not drawn) [Compound 123, 2,6-dichloro-N-{(4,4-difluoro-1-hydroxycyclohexyl)[3-(1-ethyl-1H-pyrazol-4-yl)phenyl]methyl}-3-(trifluoromethyl)benzamide]"
8,310,"CCn1cc(-c2cccc(C(NC(=O)c3cccc(Cl)c3C)C3(O)CCC(F)(F)CC3)c2)cn1 (stereo not drawn) [Compound 124, 3-chloro-N-{(4,4-difluoro-1-hydroxycyclohexyl)[3-(1-ethyl-1H-pyrazol-4-yl)phenyl]methyl}-2-methylbenzamide]"
